# Source: patent EP0582261A1, “Cephalosporin compounds and processes for the preparation thereof” (LUCKY LTD., priority 1992, dated 1994)
# Key:
# Assay in all cases: MIC, two-fold dilution method on Müller-Hinton agar
# Format in all cases: cell-based
# Details in all cases: incubated at 37°C for 20 hours
# [1] = test system: Salmonella typhimurium ATCC 14028
# Experimental: (§1) The same procedures as described in Example 163 were repeated using 7-amino-1,8-dimethyl[1,3]imidazo[1,2-c] pyrimidine-5-thione prepared in Preparation Example 36 in place of 7-amino-1-methyl[1,3]imidazo[1,2-c]pyrimidine-5-thione to yield 190mg and 180mg of the title compound(a) and (b), respectively, as white solids.
# (§2) These MIC values were taken by employing a two-fold dilution method: that is, two-fold serial dilutions of each of the test compounds were made and dispersed in a Müller-Hinton agar medium; 2µl of the standard test strain which had the 10⁷ CFU(Colony Forming Unit) per ml was inoculated on the medium; and these were incubated at 37°C for 20 hours.
# [2] = test system: Shigella sonnei ATCC 11060
# Experimental: as §1, §2
# [3] = test system: Proteus mirabilis ATCC 25933
# Experimental: as §1, §2
# [4] = test system: Staphylococcus aureus ATCC 10537
# Experimental: as §1, §2
# [5] = test system: Streptococcus faecalis ATCC 29212
# Experimental: as §1, §2
# [6] = test system: Pseudomonas aeruginosa ATCC 27853
# Experimental: as §1, §2
# [7] = test system: Citrobacter freundii ATCC 8090
# Experimental: as §1, §2
# [8] = test system: Enterobacter aerogenes ATCC 29751
# Experimental: as §1, §2
# [9] = test system: Acinetobacter calcoaceticus ATCC 15473
# Experimental: as §1, §2
# [10] = test system: Klebsiella pneumoniae ATCC 10031
# Experimental: as §1, §2
# [11] = test system: Staphylococcus epidermidis ATCC 12228
# Experimental: as §1, §2
# [12] = test system: Escherichia coli ATCC 25922
# Experimental: as §1, §2
# [13] = test system: Micrococcus luteus ATCC 9341
# Experimental: as §1, §2
# [14] = test system: Serratia marcescens ATCC 27117
# Experimental: as §1, §2
# [15] = test system: Pseudomonas aeruginosa ATCC 10145
# Experimental: as §1, §2
# [16] = test system: Staphylococcus aureus ATCC 6538p
# Experimental: as §1, §2
# [17] = test system: Bacillus megaterium ATCC 9885
# Experimental: as §1, §2
# [18] = test system: Pseudomonas aeruginosa ATCC 25619
# Experimental: as §1, §2
# [19] = test system: Bacillus cereus ATCC 11778
# Experimental: as §1, §2
# [20] = test system: Providencia rettgeri ATCC 9250
# Experimental: as §1, §2
# [21] = test system: Proteus vulgaris ATCC 6059
# Experimental: as §1, §2
# [22] = test system: Enterobacter cloacae ATCC 27508
# Experimental: as §1, §2
# [23] = test system: Shigella flexneri ATCC 11836
# Experimental: as §1, §2
# [24] = test system: Escherichia coli ATCC 10536
# Experimental: as §1, §2
# [25] = test system: Morganella morganii ATCC 8076h
# Experimental: as §1, §2
Substance,MIC values against the standard strains [1],MIC values against the standard strains [2],MIC values against the standard strains [3],MIC values against the standard strains [4],MIC values against the standard strains [5],MIC values against the standard strains [6],MIC values against the standard strains [7],MIC values against the standard strains [8],MIC values against the standard strains [9],MIC values against the standard strains [10],MIC values against the standard strains [11],MIC values against the standard strains [12],MIC values against the standard strains [13],MIC values against the standard strains [14],MIC values against the standard strains [15],MIC values against the standard strains [16],MIC values against the standard strains [17],MIC values against the standard strains [18],MIC values against the standard strains [19],MIC values against the standard strains [20],further results
"7-[(Z)-2-(2-aminothiazol-4-yl)-2-((R)-1-carboxyprop-1-oxyimino)acetamido]-3-(2,7-diamino-1-methyl[1,2,4]triazolo[1,5-c]pyrimidinium-5-yl)thiomethyl-3-cephem-4-carboxylate [Exp. 88]",0.13 µg/mL,0.063 µg/mL,0.13 µg/mL,0.13 µg/mL,8 µg/mL,1 µg/mL,0.13 µg/mL,0.13 µg/mL,1 µg/mL,≤0.008 µg/mL,0.031 µg/mL,0.063 µg/mL,≤0.008 µg/mL,0.25 µg/mL,1 µg/mL,0.13 µg/mL,0.031 µg/mL,0.5 µg/mL,8 µg/mL,≤0.008 µg/mL,MIC values against the standard strains [21]: 0.063 µg/mL; MIC values against the standard strains [22]: ≤0.008 µg/mL; MIC values against the standard strains [23]: 0.031 µg/mL; MIC values against the standard strains [24]: 0.13 µg/mL; MIC values against the standard strains [25]: ≤0.008 µg/mL
"7-[(Z)-2-(2-aminothiazol-4-yl)-2-(1-carboxycyclopentoxyimino)acetamido]-3-(2,7-diamino-1-methyl [1,2,4]triazolo[1,5-c]pyrimidinium-5-yl)thiomethyl-3-cephem-4-carboxylate [Exp. 84]",0.13 µg/mL,0.13 µg/mL,0.063 µg/mL,0.25 µg/mL,32 µg/mL,1 µg/mL,0.063 µg/mL,0.25 µg/mL,2 µg/mL,0.063 µg/mL,0.5 µg/mL,0.063 µg/mL,0.016 µg/mL,0.13 µg/mL,2 µg/mL,0.25 µg/mL,0.25 µg/mL,1 µg/mL,32 µg/mL,≤0.008 µg/mL,MIC values against the standard strains [21]: 0.063 µg/mL; MIC values against the standard strains [22]: ≤0.008 µg/mL; MIC values against the standard strains [23]: 0.063 µg/mL; MIC values against the standard strains [24]: 0.063 µg/mL; MIC values against the standard strains [25]: ≤0.008 µg/mL
